Experimental data reported in publication PMC9223397 (International Journal of Molecular Sciences, 2022).

Experiments:
[1] = Plasma levels, spinal nerve injury (rhizotomy) model; assay type: in vivo, female mouse; settings: ip
Protocol: (§1) The compounds were dissolved in 0.5% hydroxypropyl-methylcellulose (HPMC; H7509, Sigma-Aldrich) in distilled water and were administered by intraperitoneal (i.p.) route twice daily (bid) in a volume of 10 mL/kg. Administrations were given from 30 min after rhizotomy surgery until 42 days post-injury (dpi), the end of the study; in the SOD1^G93A study, treatments were given from 8 to 16 weeks of age (see Figure 6).
Plasma levels were determined in the two in vivo models evaluated to be able to associate the pharmacological activity with the levels present in plasma. […] In the SOD1^G93A model, the plasma levels were evaluated at 16 weeks of age (after 8 weeks of administration) and 15 min after compound administration (5 mg/kg i.p.). Plasma samples were assayed by ultraperformance liquid chromatography−triple quadrupole mass spectrometry (UPLC-MS/MS) after plasma protein precipitation. Results are expressed as mean ± standard deviation (n = 8).

[2] = target: T1, human Sigma-2 receptor (Sig-2R) (Homo sapiens, UniProt Q5BJF2); experiment: Human Sig-2R radioligand assay; assay type: binding; settings: [3H]-DTG, transfected HEK-293 Sig-1R knockout membranes
T1 construct: expressed in transfected cells; host or cells: HEK-293 Sig-1R knockout (membranes)
Protocol: The binding properties of the compounds to the human Sig-2R were similarly studied in transfected HEK-293 Sig-1R knockout membranes using [^3H]-1,3-di-o-tolylguanidine (DTG) (NET-986, PerkinElmer; Boston, USA) as the radioligand. The assay was carried out with 15 μg of membrane suspension, [^3H]-1,3-di-o-tolylguanidine (DTG) (10 nM, 100 μL), in either the absence or presence of either buffer or 10 μM haloperidol for total (TB) and nonspecific (NSB) binding, respectively, or the corresponding compound concentration. Binding buffer contained Tris-HCl (50 mM, pH 7.4). Plates were incubated at 25 °C for 120 min. After incubation, the reaction mix was transferred to MultiScreen HTS, FC plates (Merck Millipore) presoaked in 0.5% polyethyleneimine, and filtered. Following that, plates were washed with ice-cold Tris-HCl (10 mM, pH 8). Filters were dried and counted, and data were processed as above.

[3] = Tolerability of chronic administration in rhizotomy mice; assay type: in vivo; settings: twice daily i.p. for 6 weeks, 0.5 and 5 mg/kg
Protocol: as §1

[4] = Plasma levels, SOD1G93A model; assay type: in vivo, Transgenic SOD1^G93A male mouse; settings: SOD1G93A transgenic, ip
Protocol: as §1
Plasma levels were determined in the two in vivo models evaluated to be able to associate the pharmacological activity with the levels present in plasma. In the rhizotomy model, the plasma levels were evaluated at Day 42 after surgery and at 15 min after compound administration (0.5 and 5 mg/kg i.p.). […] Plasma samples were assayed by ultraperformance liquid chromatography−triple quadrupole mass spectrometry (UPLC-MS/MS) after plasma protein precipitation. Results are expressed as mean ± standard deviation (n = 8).

[5] = test system: spinal α-MNs in SOD1^G93A mice; experiment: Spinal MN counts in SOD1G93A mice; assay type: in vivo, SOD1^G93A male mice; settings: 5 mg/kg i.p.; 16 weeks of age; untreated 6.9 ± 0.5, WT 25.3 ± 0.5
Protocol: as §1
At the end of follow-up (42 dpi for rhizotomy and 16 weeks of age for ALS mice; Figure 6), the animals were deeply anesthetized and transcardially perfused with 4% PFA in PBS. The lumbar spinal cord and the TA muscle were harvested and cryopreserved in 30% sucrose solution in PB. The spinal cords were serially cut in 20 µm thick transverse sections with a cryostat (Leica, Mannheim, Germany). For MN counting, L4-L5 spinal cord sections separated 100 µm were stained for 3 h with an acidified solution of 3.1 mM cresyl violet. MNs were identified by their localization in the lateral ventral horn of the spinal cord and were counted following strict size and morphological criteria: only MNs with a diameter larger than 20 µm, polygonal shape, and prominent nucleoli were counted.

[6] = test system: Sig-1R/BiP interaction; experiment: BiP/Sig-1R association assay in CHO cells; assay type: cell-based; settings: for Effect on association between Sig-1R and BiP, compound alone: 30 µM; for Effect on Sig-1R/BiP interaction (concentration-response): CHO cells, 37 °C 30 min, co-IP/ELISA; for Functional profile for Sig-1R: based on BiP/Sig-1R association assay
Protocol: The interaction between Sig-1R and the chaperone BiP was used to identify the functional nature (agonistic or antagonistic) of compounds [38]. The assay was conducted by Amylgen according to their standard assay protocol (https://www.amylgen.fr/ (accessed on 15 May 2022)). Each assay condition consisted of six determinations. In brief, CHO cells were treated with compounds at 37 °C for 30 min and lysed. CHO cell lysates were immunoprecipitated with Sig-1R antibody, and coimmunoprecipitated BiP was detected by ELISA assay. In each experiment, untreated control cell lysates were used to assess the maximal level of Sig1R-BiP interaction and represented 100% of Sig1R-BiP association. Cells treated with compounds at the corresponding concentrations were equally processed, and the level of Sig1R-BiP association in those conditions was referred to as the control condition. In this experimental setting, Sig1R agonists were able to reduce the Sig1R-BiP interaction, while antagonists were not.

[7] = test system: SOD1^G93A mice; experiment: Motor nerve conduction tests in SOD1G93A mice; assay type: in vivo, SOD1^G93A male mice
Protocol: as §1
Motor nerve conduction tests were performed before the surgery to obtain baseline values and at the end of the follow-up in the rhizotomy model, whereas the SOD1^G93A mice were evaluated at 8 weeks (prior to starting drug administration) and then every 2–3 weeks until the end point at 16 weeks of age (Figure 6). The sciatic nerve was stimulated by means of single pulses of 50 µs duration delivered from a Grass S88 stimulator through needle electrodes placed at the sciatic notch. The CMAP was recorded from TA, GM, and plantar interossei muscles with microneedle electrodes, with the active electrode being placed in the muscle and the reference at the fourth toe. […] The mice were anesthetized with pentobarbital (50 mg/kg i.p.), and their body temperature was maintained by means of a thermostatic warming pad.

[8] = 5 mg/kg i.p. from 8 weeks of age, early (11 weeks) and mid (13 weeks) stages

T1 sequence (Q5BJF2 whole entry): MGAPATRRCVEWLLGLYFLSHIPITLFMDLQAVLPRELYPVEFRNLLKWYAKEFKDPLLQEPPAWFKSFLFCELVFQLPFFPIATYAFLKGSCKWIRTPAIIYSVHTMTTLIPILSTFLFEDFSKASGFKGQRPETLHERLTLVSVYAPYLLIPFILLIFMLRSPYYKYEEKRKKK

SMILES	concentration at 15 min ([1]; plasma, rhizotomy female mouse, 0.5 mg/kg i.p. bid, day 42, read-out: Plasma Concentration 15 min Post-Administration, Mean) [ng/mL]	concentration at 15 min ([1]; plasma, rhizotomy female mouse, 5 mg/kg i.p. bid, day 42, read-out: Plasma Concentration 15 min Post-Administration, Mean) [ng/mL]	IC50 [2] [µM]	Toxicity of chronic administration (behavior, body weight) [3]	concentration at 15 min ([4]; plasma, SOD1G93A male mouse, 5 mg/kg i.p., after 8 weeks of administration, read-out: Plasma Concentration 15 min Post-Administration, Mean) [ng/mL]	Number of surviving spinal α-MNs [5] [MNs per section]	Effect on association between Sig-1R and BiP, compound alone [6]	Effect on Sig-1R/BiP interaction (concentration-response) [6]	Functional profile for Sig-1R [6]	CMAP amplitude of TA and plantar muscles vs vehicle [7, 8]	CMAP amplitude of TA and plantar muscles vs vehicle ([7]; 5 mg/kg i.p., at 16 weeks of age)	concentration at 15 min ([1]; female, mouse, in vivo, 0.5 mg/kg) [ng/mL]	concentration at 15 min ([1]; female, mouse, in vivo, 5 mg/kg) [ng/mL]	concentration at 15 min ([4]; male, mouse, in vivo, 5 mg/kg) [ng/mL]	Reversion of the effect of PRE-084 on Sig-1R/BiP association ([6]; compound 30 µM, PRE-084 10 µM)
C[C@@H]1OC2(CCN(Cc3ccc(F)cc3)CC2)CN(C)C1=O [EST79232]	20	265	> 10	did not cause overt toxicity in the animals	425	10.8 ± 1.1	able to reduce the association between Sig-1R and BiP	concentration-dependent dissociation of Sig-1R from BiP	agonist	significantly prevented the decline in amplitude of the CMAP of TA and plantar muscles	effect was reduced to levels found in the vehicle group	–	–	–	–
CCN1CC2(CCN(Cc3ccc(C#N)c(F)c3)CC2)O[C@@H](C)C1=O [EST79376]	–	–	> 10	did not cause overt toxicity in the animals	–	8.5 ± 1.0	had no effect on its own	did not produce any change in the interaction between the two proteins	antagonist	only showed significant preservation of the CMAP amplitude in the plantar muscle at 13 weeks of age	–	21	592	692	able to revert the effect of PRE-084
